Results taken from ChEMBL document CHEMBL5380795, “Design, Synthesis, and Bioactivity Investigation of Cyclic Lipopeptide Antibiotics Containing Eight to Nine Amino Acids” (J Med Chem, 2023).
In brackets after ≈: the same amount, converted by molar mass. Bridge positions count the residues as written; N and C are the ends. Square brackets hold non-standard residues; d marks the D form. Peptide text beside a SMILES is read from it. * marks the point of attachment. X1 = CC[C@H](C)CCCCC(=O)*; Dab = NCC[C@H](N)C(=O)O

What was measured:
[1] = Cytotoxicity against human HK-2 cells assessed as inhibition of cell growth incubated for 72 hrs by CCK-8 assay; type: toxicity, cell-based
[2] = Selectivity index, ratio of IC50 for cytotoxicity against human HK-2 cells to MIC for antibacterial activity against Escherichia coli ATCC BAA-2523; type: toxicity, cell-based
Staphylococcus aureus [3] = assay: Antibacterial activity against methicillin resistant Staphylococcus aureus ATCC 33591 assessed as inhibition of bacterial growth incubated for 18 to 24 hrs by broth microdilution method; type: functional; conditions: time 18-24 hrs
Staphylococcus aureus [4] = assay: Antibacterial activity against Staphylococcus aureus ATCC 29213 assessed as inhibition of bacterial growth incubated for 18 to 24 hrs by broth microdilution method; type: functional; conditions: time 18-24 hrs
[5] = test system: Staphylococcus epidermidis; assay: Antibacterial activity against methicillin resistant Staphylococcus epidermidis clinical isolate 19-5 assessed as inhibition of bacterial growth incubated for 18 to 24 hrs by broth microdilution method; type: functional; conditions: time 18-24 hrs
[6] = test system: Staphylococcus epidermidis; assay: Antibacterial activity against methicillin resistant Staphylococcus epidermidis clinical isolate 19-6 assessed as inhibition of bacterial growth incubated for 18 to 24 hrs by broth microdilution method; type: functional; conditions: time 18-24 hrs
Escherichia coli [7] = assay: Antibacterial activity against Escherichia coli ATCC BAA-2523 assessed as inhibition of bacterial growth incubated for 18 to 24 hrs by broth microdilution method; type: functional; conditions: time 18-24 hrs
Escherichia coli [8] = assay: Antibacterial activity against Escherichia coli NCTC 13353 assessed as inhibition of bacterial growth incubated for 18 to 24 hrs by broth microdilution method; type: functional; conditions: time 18-24 hrs
Escherichia coli [9] = assay: Antibacterial activity against Escherichia coli clinical isolate 19-2 assessed as inhibition of bacterial growth incubated for 18 to 24 hrs by broth microdilution method; type: functional; conditions: time 18-24 hrs
Escherichia coli [10] = assay: Antibacterial activity against KPC producing Escherichia coli ATCC BAA-2340 assessed as inhibition of bacterial growth incubated for 18 to 24 hrs by broth microdilution method; type: functional; conditions: time 18-24 hrs
Klebsiella pneumoniae [11] = assay: Antibacterial activity against carbapenem resistant Klebsiella pneumoniae clinical isolate 19-15 assessed as inhibition of bacterial growth incubated for 18 to 24 hrs by broth microdilution method; type: functional; conditions: time 18-24 hrs
Klebsiella pneumoniae [12] = assay: Antibacterial activity against carbapenem resistant Klebsiella pneumoniae clinical isolate 19-17 assessed as inhibition of bacterial growth incubated for 18 to 24 hrs by broth microdilution method; type: functional; conditions: time 18-24 hrs
Klebsiella pneumoniae [13] = assay: Antibacterial activity against KPC producing Klebsiella pneumoniae ATCC BAA-1705 assessed as inhibition of bacterial growth incubated for 18 to 24 hrs by broth microdilution method; type: functional; conditions: time 18-24 hrs
Pseudomonas aeruginosa [14] = assay: Antibacterial activity against Pseudomonas aeruginosa clinical isolate 19-1 assessed as inhibition of bacterial growth incubated for 18 to 24 hrs by broth microdilution method; type: functional; conditions: time 18-24 hrs
Pseudomonas aeruginosa [15] = assay: Antibacterial activity against carbapenem resistant Pseudomonas aeruginosa clinical isolate 19-3 assessed as inhibition of bacterial growth incubated for 18 to 24 hrs by broth microdilution method; type: functional; conditions: time 18-24 hrs
Pseudomonas aeruginosa [16] = assay: Antibacterial activity against carbapenem resistant Pseudomonas aeruginosa clinical isolate 17-1 assessed as inhibition of bacterial growth incubated for 18 to 24 hrs by broth microdilution method; type: functional; conditions: time 18-24 hrs
Pseudomonas aeruginosa [17] = assay: Antibacterial activity against Pseudomonas aeruginosa ATCC 27853 assessed as inhibition of bacterial growth incubated for 18 to 24 hrs by broth microdilution method; type: functional; conditions: time 18-24 hrs
Acinetobacter baumannii [18] = assay: Antibacterial activity against carbapenem resistant Acinetobacter baumannii clinical isolate 19-8 assessed as inhibition of bacterial growth incubated for 18 to 24 hrs by broth microdilution method; type: functional; conditions: time 18-24 hrs
Acinetobacter baumannii [19] = assay: Antibacterial activity against oxacillinase-27 producing Acinetobacter baumannii NCTC 13304 assessed as inhibition of bacterial growth incubated for 18 to 24 hrs by broth microdilution method; type: functional; conditions: time 18-24 hrs

Row | SMILES | IC50 at 72 h [1] [µg/mL] | selectivity ratio [2] | MIC (Staphylococcus aureus [3]) [µg/mL] | MIC (Staphylococcus aureus [4]) [µg/mL] | MIC [5] [µg/mL] | MIC [6] [µg/mL] | MIC (Escherichia coli [7]) [µg/mL] | MIC (Escherichia coli [8]) [µg/mL] | MIC (Escherichia coli [9]) [µg/mL] | MIC (Escherichia coli [10]) [µg/mL] | MIC (Klebsiella pneumoniae [11]) [µg/mL] | MIC (Klebsiella pneumoniae [12]) [µg/mL] | MIC (Klebsiella pneumoniae [13]) [µg/mL] | MIC (Pseudomonas aeruginosa [14]) [µg/mL] | MIC (Pseudomonas aeruginosa [15]) [µg/mL] | MIC (Pseudomonas aeruginosa [16]) [µg/mL] | MIC (Pseudomonas aeruginosa [17]) [µg/mL] | MIC (Acinetobacter baumannii [18]) [µg/mL] | MIC (Acinetobacter baumannii [19]) [µg/mL]
1 | CC[C@H](C)CCCCC(=O)N[C@@H](CCN)C(=O)N[C@H](C(=O)N[C@@H](CCN)C(=O)N[C@H]1CCNC(=O)[C@H]([C@@H](C)O)NC(=O)[C@H](CCN)NC(=O)[C@H](CCN)NC(=O)[C@H](CC(C)C)NC(=O)[C@@H](Cc2ccccc2)NC(=O)[C@H](CCN)NC1=O)[C@@H](C)O (X1-[Dab]T[Dab][Dab][Dab][dF]L[Dab][Dab]T; lactam 4-C) | 55.9 (≈ 46.4 µM) | > 932 |  |  |  |  |  |  |  |  |  |  |  |  |  |  |  |  | 
2 | CCCCCCCCCC(=O)N[C@H](CCN)C(=O)N[C@H]1CCNC(=O)[C@H](CO)NC(=O)[C@H](CCN)NC(=O)[C@H](CCN)NC(=O)[C@H](Cc2ccccc2)NC(=O)[C@@H](CC(C)C)NC(=O)[C@H](CCN)NC1=O | 146 (≈ 145 µM) | 9.1 | > 64 | 64 (≈ 63.9 µM) | 4 (≈ 3.99 µM) | 2 (≈ 2 µM) | 16 (≈ 16 µM) | 32 (≈ 31.9 µM) | 16 (≈ 16 µM) | 16 (≈ 16 µM) | 32 (≈ 31.9 µM) | 64 (≈ 63.9 µM) | 8 (≈ 7.98 µM) | 16 (≈ 16 µM) | 16 (≈ 16 µM) | 64 (≈ 63.9 µM) | 64 (≈ 63.9 µM) | > 64 | > 64
3 | CCCCCCCCCC(=O)N[C@H](CCN)C(=O)N[C@H]1CCNC(=O)[C@H]([C@@H](C)O)NC(=O)[C@H](CCN)NC(=O)[C@H](CCN)NC(=O)[C@H](CC(C)C)NC(=O)[C@@H](Cc2ccc(C)cc2)NC(=O)[C@H](CCN)NC1=O | 71.6 (≈ 69.5 µM) | 71.6 | > 64 | 32 (≈ 31.1 µM) | 2 (≈ 1.94 µM) | 2 (≈ 1.94 µM) | 1 (≈ 0.971 µM) | 8 (≈ 7.76 µM) | 2 (≈ 1.94 µM) | 1 (≈ 0.971 µM) | 4 (≈ 3.88 µM) | 4 (≈ 3.88 µM) | 2 (≈ 1.94 µM) | 1 (≈ 0.971 µM) | 1 (≈ 0.971 µM) | 32 (≈ 31.1 µM) | 32 (≈ 31.1 µM) | 32 (≈ 31.1 µM) | 16 (≈ 15.5 µM)
4 | CCCCCCC[C@H](O)CC(=O)N[C@H](CCN)C(=O)N[C@H]1CCNC(=O)[C@H](CC(C)C)NC(=O)[C@H](CCN)NC(=O)[C@H](CCN)NC(=O)[C@H](CC(C)C)NC(=O)[C@@H](CC(C)C)NC(=O)[C@H](CCN)NC1=O | 77.6 (≈ 76.8 µM) | 19.4 | > 64 | > 64 | 2 (≈ 1.98 µM) | 16 (≈ 15.8 µM) | 4 (≈ 3.96 µM) | 8 (≈ 7.92 µM) | 8 (≈ 7.92 µM) | 2 (≈ 1.98 µM) | 8 (≈ 7.92 µM) | 8 (≈ 7.92 µM) | 4 (≈ 3.96 µM) | 2 (≈ 1.98 µM) | 4 (≈ 3.96 µM) | 2 (≈ 1.98 µM) | 1 (≈ 0.99 µM) | 2 (≈ 1.98 µM) | 1 (≈ 0.99 µM)
5 | CCCCCCCCCC(=O)N[C@H](CCN)C(=O)N[C@H]1CCNC(=O)[C@H](CC(C)C)NC(=O)[C@H](CCN)NC(=O)[C@H](CCN)NC(=O)[C@H](Cc2ccccc2)NC(=O)[C@@H](Cc2ccccc2)NC(=O)[C@H](CCN)NC1=O | 32.2 (≈ 30.3 µM) | 4 | 32 (≈ 30.1 µM) | 8 (≈ 7.53 µM) | 1 (≈ 0.941 µM) | 1 (≈ 0.941 µM) | 8 (≈ 7.53 µM) | 8 (≈ 7.53 µM) | 8 (≈ 7.53 µM) | 2 (≈ 1.88 µM) | 8 (≈ 7.53 µM) | 16 (≈ 15.1 µM) | 16 (≈ 15.1 µM) | 4 (≈ 3.77 µM) | 4 (≈ 3.77 µM) | 8 (≈ 7.53 µM) | 8 (≈ 7.53 µM) | 16 (≈ 15.1 µM) | 16 (≈ 15.1 µM)
6 | CCCCCCCCCC(=O)N[C@H](CCN)C(=O)N[C@H]1CCNC(=O)[C@H](CC(=O)O)NC(=O)[C@H](CCN)NC(=O)[C@H](CCN)NC(=O)[C@H](CC(C)C)NC(=O)[C@@H](CC(C)C)NC(=O)[C@H](CCN)NC1=O | 347 (≈ 349 µM) | < 5.4 | > 64 | > 64 | > 64 | > 64 | > 64 | > 64 | > 64 | > 64 | > 64 | > 64 | > 64 | > 64 | > 64 | > 64 | > 64 | > 64 | > 64
7 | CCCCCCCC(=O)N[C@H](CCN)C(=O)N[C@H]1CCNC(=O)[C@H](CC(C)C)NC(=O)[C@H](CCN)NC(=O)[C@H](CCN)NC(=O)[C@H](CC(C)C)NC(=O)[C@@H](CC(C)C)NC(=O)[C@H](CCN)NC1=O | 198 (≈ 205 µM) | 6.2 | > 64 | > 64 | 8 (≈ 8.28 µM) | 64 (≈ 66.2 µM) | 32 (≈ 33.1 µM) | 16 (≈ 16.6 µM) | 32 (≈ 33.1 µM) | 2 (≈ 2.07 µM) | 16 (≈ 16.6 µM) | 16 (≈ 16.6 µM) | 2 (≈ 2.07 µM) | 8 (≈ 8.28 µM) | 4 (≈ 4.14 µM) | 2 (≈ 2.07 µM) | 1 (≈ 1.03 µM) | 16 (≈ 16.6 µM) | 8 (≈ 8.28 µM)
8 | CCCCCCCCCC(=O)N[C@H](CCN)C(=O)N[C@H]1CCNC(=O)[C@H]([C@@H](C)O)NC(=O)[C@H](CCN)NC(=O)[C@H](CCN)NC(=O)[C@H](CC(C)C)NC(=O)[C@@H](CC(C)C)NC(=O)[C@H](CCCN)NC1=O | 277 (≈ 278 µM) | < 4.3 | > 64 | > 64 | 4 (≈ 4.01 µM) | 32 (≈ 32.1 µM) | > 64 | > 64 | > 64 | > 64 | > 64 | > 64 | > 64 | > 64 | > 64 | > 64 | > 64 | > 64 | > 64
9 | CCCCCCCCCC(=O)N[C@H](CCN)C(=O)N[C@H]1CCNC(=O)[C@H]([C@@H](C)O)NC(=O)[C@H](CCN)NC(=O)[C@H](CCN)NC(=O)[C@H](CC(C)C)NC(=O)[C@@H](Cc2ccc(N)cc2)NC(=O)[C@H](CCN)NC1=O | 228 (≈ 221 µM) | 3.6 | > 64 | > 64 | 16 (≈ 15.5 µM) | 32 (≈ 31 µM) | 64 (≈ 62.1 µM) | > 64 | 64 (≈ 62.1 µM) | 64 (≈ 62.1 µM) | > 64 | > 64 | > 64 | > 64 | > 64 | > 64 | > 64 | > 64 | > 64
10 | CC(C)C[C@@H]1NC(=O)[C@@H](CC(C)C)NC(=O)[C@H](CCN)NC(=O)[C@@H](NC(=O)[C@@H](CCN)NC(=O)CCCCCc2ccccc2)CCNC(=O)[C@H]([C@@H](C)O)NC(=O)[C@H](CCN)NC(=O)[C@H](CCN)NC1=O | 309 (≈ 309 µM) | 19.3 | > 64 | > 64 | 8 (≈ 7.98 µM) | 64 (≈ 63.9 µM) | 16 (≈ 16 µM) | 32 (≈ 31.9 µM) | 16 (≈ 16 µM) | 8 (≈ 7.98 µM) | > 64 | > 64 | 8 (≈ 7.98 µM) | 2 (≈ 2 µM) | 4 (≈ 3.99 µM) | 4 (≈ 3.99 µM) | 1 (≈ 0.998 µM) | > 64 | > 64
11 | CCCCCCCCCC(=O)N[C@H](CCN)C(=O)N[C@H]1CCNC(=O)[C@H]([C@@H](C)O)NC(=O)[C@H](CCN)NC(=O)[C@H](CCN)NC(=O)[C@H](CC(=O)O)NC(=O)[C@@H](CC(C)C)NC(=O)[C@H](CCN)NC1=O | > 500 |  | > 64 | > 64 | > 64 | > 64 | > 64 | > 64 | > 64 | > 64 | > 64 | > 64 | > 64 | > 64 | > 64 | > 64 | > 64 | > 64 | > 64
12 | CCCCCCCCCC(=O)N[C@H](CCN)C(=O)N[C@H]1CNC(=O)[C@H]([C@@H](C)O)NC(=O)[C@H](CCN)NC(=O)[C@H](CCN)NC(=O)[C@H](CC(C)C)NC(=O)[C@@H](CC(C)C)NC(=O)[C@H](CCN)NC1=O | 68.6 (≈ 70.8 µM) |  | > 64 | > 64 | 1 (≈ 1.03 µM) | 32 (≈ 33 µM) | < 64 | > 64 | > 64 | > 64 | > 64 | > 64 | > 64 | > 64 | > 64 | > 64 | > 64 | > 64 | > 64
